Assay results as given in the Deep4Chem optical property database.
Values belong to the compound of their own block, whether it stands above or below them.

Assay: photoluminescence quantum yield (fraction); solvent given as SMILES

- photoluminescence quantum yield (in CC(C)(C)O): 0.19
- photoluminescence quantum yield (in CC(C)CO): 0.29
- photoluminescence quantum yield (in CC(C)O): 0.24
- photoluminescence quantum yield (in CCCCO): 0.32
- photoluminescence quantum yield (in CCCO): 0.27
- photoluminescence quantum yield (in CCO): 0.25
- photoluminescence quantum yield (in CN(C)C=O): 0.02
- photoluminescence quantum yield (in CNC=O): 0.1
- photoluminescence quantum yield (in CO): 0.22
- photoluminescence quantum yield (in NC=O): 0.43
- photoluminescence quantum yield (in O): 0.11
SMILES: COCCOCCOCCOCCOc1ccc(OCCOCCOCCOCCOC)c(C=O)c1

- photoluminescence quantum yield (in CCOC(C)=O): 0.6
SMILES: CCn1ncc2c3c(C#N)c4c5ccccc5n(CC)c4nc3ccc21

- photoluminescence quantum yield (in ClC(Cl)Cl): 0.65
SMILES: CC1=CC(C)=[N+]2C1=C(c1ccc(I)cc1)c1c(C)cc(C)n1[B-]2(OCc1ccccc1)OCc1ccccc1

- photoluminescence quantum yield (in C1COCCO1): 0.63
SMILES: c1ccc(-c2nc(-c3ccc(-c4nc(-c5ccccc5)c(-c5ccccc5)o4)cc3)oc2-c2ccccc2)cc1

SMILES: CON(OC)c1cc2c3cc(-c4c(C)cc(C)cc4C)cc4c5cc(-c6c(C)cc(C)cc6C)cc6c7cc(B(c8c(C)cc(C)cc8C)c8c(C)cc(C)cc8C)cc8c9cc(-c%10c(C)cc(C)cc%10C)cc%10c%11cc(-c%12c(C)cc(C)cc%12C)cc%12c(c1)c2c1c(c43)c(c65)c(c78)c(c9%10)c1c%11%12
- photoluminescence quantum yield (in C1CCOC1): 0.46
- photoluminescence quantum yield (in CC(C)=O): 0.05
- photoluminescence quantum yield (in CCCCCC): 0.22
- photoluminescence quantum yield (in Cc1ccccc1): 0.42
- photoluminescence quantum yield (in ClC(Cl)Cl): 0.46
- photoluminescence quantum yield (in ClCCl): 0.56

SMILES: Oc1ccccc1-c1nc2c3cccnc3c3ncccc3c2n1-c1ccccc1
- photoluminescence quantum yield (in Cc1ccccc1): 0.001

- photoluminescence quantum yield (in ClCCl): 0.43
SMILES: F[B-]1(F)OC(C#Cc2ccccc2)=CC(c2ccccc2)=[O+]1

- photoluminescence quantum yield (in ClCCl): 0.56
SMILES: C(=C\c1cc(/C=C/c2ccc(N(c3ccccc3)c3ccccc3)cc2)nc(/C=C/c2ccc(N(c3ccccc3)c3ccccc3)cc2)n1)/c1ccc(N(c2ccccc2)c2ccccc2)cc1

- photoluminescence quantum yield (in CCO): 0.17
SMILES: CCOC(=O)c1cc(C(=O)OCC)c2cccc(O)c2n1

- photoluminescence quantum yield (in CO): 0.16
SMILES: COc1c(/C=N/Nc2ccc(C#N)cc2)ccc2ccccc12

SMILES: CCCCOC(=O)c1cc(Cl)c2c3c(Cl)cc4c5c(cc(Cl)c(c6c(Cl)cc(C(=O)OCCCC)c1c26)c53)C(=O)N(c1c(C(C)C)cccc1C(C)C)C4=O
- photoluminescence quantum yield (in Cc1ccccc1): 0.89

SMILES: Fc1ccc(-c2cc3ccc4cc(-c5ccc(F)cc5)cc5ccc(c2)c3c45)cc1
- photoluminescence quantum yield (in C1CCCCC1): 0.04
- photoluminescence quantum yield (in C1CCOC1): 0.07
- photoluminescence quantum yield (in CC#N): 0.08
- photoluminescence quantum yield (in CCCCCC): 0.02
- photoluminescence quantum yield (in CCO): 0.05
- photoluminescence quantum yield (in CN(C)C=O): 0.09
- photoluminescence quantum yield (in CO): 0.05
- photoluminescence quantum yield (in Cc1ccccc1): 0.07
- photoluminescence quantum yield (in ClC(Cl)Cl): 0.04
- photoluminescence quantum yield (in ClCCl): 0.05

- photoluminescence quantum yield (in C1CCOC1): 0.45
SMILES: COc1cc2c(cc1-c1ccc(C(F)(F)F)cc1)Cc1c3c(c4c(c1-2)-c1cc(OC)c(-c2ccc(C(F)(F)F)cc2)cc1C4)C(=O)N(CCC(C)C)C3=O

SMILES: N#Cc1ccc(-n2c3ccccc3c3c2c2ccccc2n3-c2ccccc2)cc1
- photoluminescence quantum yield (in Cc1ccccc1): 0.143

- photoluminescence quantum yield (in ClCCl): 0.64
SMILES: CC(C)c1cccc(C(C)C)c1N1C(=O)c2cccc3c(Oc4ccc(Cl)cc4)ccc(c23)C1=O

- photoluminescence quantum yield (in C1CCOC1): 0.21
SMILES: CCN(CC)c1ccc(-c2nc3c(nc2-c2ccc(B(c4c(C)cc(C)cc4C)c4c(C)cc(C)cc4C)cc2)c2ccccc2n3C)cc1

- photoluminescence quantum yield (in ClC(Cl)Cl): 0.98
SMILES: CCCCN1C(=O)c2ccc3c4ccc5c6c(ccc(c7ccc(c2c37)C1=O)c64)C(=O)N(CCCC)C5=O

- photoluminescence quantum yield (in ClC(Cl)Cl): 0.74
SMILES: Cc1c2c(c(C)c3ccccc13)C1=C2C=CC2Nc3ccccc3NC12 (stereo not given)

- photoluminescence quantum yield (in C1CCCCC1): 0.52
- photoluminescence quantum yield (in CCOC(C)=O): 0.12
SMILES: CC1=[N+]2C(=C(Oc3ccc4c(c3)CC[C@@H]3[C@@H]4CC[C@]4(C)C(=O)CC[C@@H]34)c3ccc(C)n3[B-]2(F)F)C=C1c1cc2n(c1)[B-](F)(F)[N+]1=CC=CC1=C2c1c(C)cc(C)cc1C

- photoluminescence quantum yield (in ClCCl): 0.83
SMILES: F[B-]1(F)OC(C#Cc2ccccc2)=C2CCc3ccccc3C2=[O+]1

SMILES: c1ccc(-c2cc(-c3ccc(N4c5ccccc5C(c5ccccc5)(c5ccccc5)c5ccccc54)cn3)nc(-c3ccccc3)n2)cc1
- photoluminescence quantum yield (in O=P(c1ccccc1)(c1ccccc1)c1ccccc1Oc1ccccc1P(=O)(c1ccccc1)c1ccccc1): 0.86

SMILES: CCCCCCCCC1(CCCCCCCC)c2cc(C=O)ccc2-c2ccc(/C=C/c3ccc(N(c4ccccc4)c4ccccc4)cc3)cc21
- photoluminescence quantum yield (in C1CCOC1): 0.94
- photoluminescence quantum yield (in C1COCCO1): 0.67
- photoluminescence quantum yield (in CC#N): 0.24
- photoluminescence quantum yield (in CC(C)=O): 0.33
- photoluminescence quantum yield (in CCCCCC): 0.6
- photoluminescence quantum yield (in CCOC(C)=O): 0.6
- photoluminescence quantum yield (in CN(C)C=O): 0.12
- photoluminescence quantum yield (in CS(C)=O): 0.2
- photoluminescence quantum yield (in Cc1ccccc1): 0.58
- photoluminescence quantum yield (in ClC(Cl)Cl): 0.53
- photoluminescence quantum yield (in ClCCl): 0.7

- photoluminescence quantum yield (in O): 0.56
SMILES: Cc1cc(/N=C/c2cc(S(=O)(=O)[O][Na])ccc2O)c(/N=C/c2cc(S(=O)(=O)[O][Na])ccc2O)cc1C

- photoluminescence quantum yield (in CC(C)O): 0.76
- photoluminescence quantum yield (in CCO): 0.69
- photoluminescence quantum yield (in CO): 0.6
- photoluminescence quantum yield (in O): 0.2
SMILES: O=C([O-])c1ccccc1-c1c2cc(Br)c(=O)c(Br)c-2oc2c(Br)c([O-])c(Br)cc12

- photoluminescence quantum yield (in CC#N): 0.42
- photoluminescence quantum yield (in ClCCl): 0.83
SMILES: COc1ccc(-c2cc3c(ccc(=O)n3C)s2)cc1

- photoluminescence quantum yield (in O): 0.24
SMILES: O=C([O-])c1cc2c(ccc3ccccc32)oc1=O

- photoluminescence quantum yield (in CCOC(C)=O): 0.51
SMILES: Cn1ncc2c3c(C#N)c4c5ccccc5n(C)c4nc3ccc21

SMILES: CC1=CC(C)=[N+]2C1=C(c1ccc(N(C)C)cc1)c1c(C)cc(/C=C/c3ccc(N(C)C)cc3)n1[B-]2(F)F
- photoluminescence quantum yield (in CCOCC): 0.78

SMILES: CCC1(CC)c2cc(C#Cc3cc(C#Cc4ccc5c(c4)C(CC)(CC)c4cc(N(c6ccccc6)c6ccccc6)ccc4-5)c4ccc5c(C#Cc6ccc7c(c6)C(CC)(CC)c6cc(N(c8ccccc8)c8ccccc8)ccc6-7)cc(C#Cc6ccc7c(c6)C(CC)(CC)c6cc(N(c8ccccc8)c8ccccc8)ccc6-7)c6ccc3c4c65)ccc2-c2ccc(N(c3ccccc3)c3ccccc3)cc21
- photoluminescence quantum yield (in Cc1ccccc1): 0.43

- photoluminescence quantum yield (in CC#N): 0.43
SMILES: Cc1ccc2c(c1)nc1c(=O)n(C)c(=O)nc-1n2C

SMILES: CCN(CC)c1ccc2cc(/C=C/c3cccc[n+]3CCCS(=O)(=O)[O-])c(=O)oc2c1
- photoluminescence quantum yield (in C1CCOC1): 0.14
- photoluminescence quantum yield (in CC#N): 0.11
- photoluminescence quantum yield (in CC(C)=O): 0.11
- photoluminescence quantum yield (in CS(C)=O): 0.16
- photoluminescence quantum yield (in Cc1ccccc1): 0.02
- photoluminescence quantum yield (in O): 0.03
- photoluminescence quantum yield (in OCC(O)CO): 0.19

- photoluminescence quantum yield (in CN(C)C=O): 0.86
SMILES: Cc1ccc2[nH]c(-c3ccc(-c4ccc(-c5ccc(-c6nc7cc(C)ccc7[nH]6)cc5)c(C)c4)cc3)nc2c1

- photoluminescence quantum yield (in C1CCCCC1): 0.0016
- photoluminescence quantum yield (in CC#N): 0.0027
- photoluminescence quantum yield (in CCO): 0.004
- photoluminescence quantum yield (in c1ccccc1): 0.0024
SMILES: CN(C)c1cccc2c1C(=O)c1ccccc1-2

- photoluminescence quantum yield (in CC1CCCO1): 0.75
SMILES: CC1=CC(/C=C/c2ccc(C)cc2)=[N+]2C1=C(c1ccccc1)c1c(C)cc(/C=C/c3ccc(C)cc3)n1[B-]2(F)F

- photoluminescence quantum yield (in CC1CCCCC1): 0.5
- photoluminescence quantum yield (in CC#N): 0.37
- photoluminescence quantum yield (in CO): 0.13
SMILES: COC(=O)C(NC(=O)OC(C)(C)C)c1ccc2oc(-c3cccc(Oc4ccccc4)c3)nc2c1 (stereo not given)

- photoluminescence quantum yield (in O): 0.3
SMILES: N#Cc1c(N2CCCCC2)cc(-c2ccc3c(c2)OCO3)c2c1-c1cccc3cccc-2c13

- photoluminescence quantum yield (in C1CCOC1): 0.19
SMILES: CCCCn1c2ccccc2c2c1c1c3ccccc3n(CCCC)c1c1c3ccccc3n(CCCC)c21

- photoluminescence quantum yield (in CCO): 0.6
- photoluminescence quantum yield (in ClC(Cl)Cl): 0.31
SMILES: CCOc1ccc2c(-c3nc(-c4ccccc4)no3)cc(=O)oc2c1

- photoluminescence quantum yield (in ClC(Cl)Cl): 0.75
SMILES: CCCCCCCCCCOc1ccc2cc(C3=C4C(=O)N(CC(OCC)OCC)C(c5cc6ccc(OCCCCCCCCCC)cc6o5)=C4C(=O)N3CC(OCC)OCC)oc2c1
